Test results published in patent US20020028807A1, “Non-nucleoside reverse transcriptase inhibitors” (priority 2000, published 2002).

Legend:
[1] = test system: HIV coding for mutant reverse transcriptase K103N; experiment: ELISA (p24) assay of HIV replication in C8166 cell culture, K103N virus; type: cell-based, HIV-1; settings: Human immunodeficiency virus 1, C8166, 72 h, read-out: EC50 K103N
Procedure: (§1) Compounds of the invention were tested for their ability to inhibit HIV replication in cell culture in a 96-well plate assay. Complete RPMI 1640, consisting of RPMI 1640+10% fetal bovine serum, 10 μg/ml gentamycin and 10 μM β-mercaptoethanol was used for dilution of the compound as well as cell growth medium. The T lymphocyte cell line C8166 was infected at a multiplicity of infection of 0.001 with viruses coding for wild-type and mutant reverse transcriptase. Cells were then incubated for three days in the presence of serial dilutions of the compounds of the invention. The supernatant was pooled from eight replica wells and the concentration of extracellular p24 was determined using a commercially available HIV-1 p24 antigen assay kit (Beckman-Coulter®). The level of inhibition (% inhibition) was calculated with the following equation: [formula]

[2] = test system: HIV coding for mutant reverse transcriptase K103N/P225H; experiment: ELISA (p24) assay of HIV replication in C8166 cell culture, K103N/P225H virus; type: cell-based, HIV-1; settings: Human immunodeficiency virus 1, C8166, 72 h, read-out: EC50 K103N/P225H
Procedure: as §1

[3] = test system: HIV coding for mutant reverse transcriptase Y181C; experiment: ELISA (p24) assay of HIV replication in C8166 cell culture, Y181C virus; type: cell-based, HIV-1; settings: Human immunodeficiency virus 1, C8166, 72 h, read-out: EC50 Y181C
Procedure: as §1

HIV-1 RT Y188L = biological target: T1, HIV-1 RT Y188L (Human immunodeficiency virus type 1 group M subtype B, UniProt P03366, Y787L); experiment: Reverse transcriptase (RT) assay, Y188L mutant; type: biochemical
T1 construct: an HIV RT clone pKRT2 containing only the RT p66 gene regulated by the lac operon/trc promoter; made in house; host or cells: E. coli JM109, vector pKK233-2
Summary of the method: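 First, RT mutants were generated by site-directed mutagenesis of the BH10 p66 gene, expressed in E. coli and purified as p66/p51 heterodimer. Then compounds were tested for inhibition of DNA synthesis on biotinylated oligo d(G)-primed poly r(C), with 3H-dGTP supplying label.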

HIV-1 RT Y188C = biological target: T2, HIV-1 RT Y188C (Human immunodeficiency virus type 1 group M subtype B, UniProt P03366, Y787C); experiment: Reverse transcriptase (RT) assay, Y188C mutant; type: biochemical
T2 construct: an HIV RT clone pKRT2 containing only the RT p66 gene regulated by the lac operon/trc promoter; made in house; host or cells: E. coli JM109, vector pKK233-2
From the text: (§2) Among the enzymes for which Human Immunodeficiency Virus (HIV-1) encodes is a reverse transcriptase (1), so-named because it transcribes a DNA copy from an RNA template. This activity can be quantitatively measured in a cell-free enzyme assay and is based upon the observation that reverse transcriptase is able to use a synthetic template poly r(C) primed with a biotinylated oligo d(G) to transcribe a radio-labelled DNA strand utilising 3H-dGTP as a substrate. The assay described below utilises the wild-type enzyme (which is the predominant form of the enzyme observed in patients infected with HIV-1) and can also be used with mutant RT enzymes (for example, Y181C, prepared by site-directed mutagenesis in which the tyrosine residue at codon 181 has been replaced by a cysteine residue) in analogous assay conditions. This assay allows compounds to be evaluated for their effectiveness at inhibiting the mutant enzymes.
(§3) Some HIV-1 IIIB clone BH10 RT mutants were provided by Dr. C.-K. Shih (Boehringer Ingelheim Pharmaceutials Inc., U.S.A.) in the vector pKK233-2 (Pharmacia). Briefly an HIV RT clone pKRT2 containing only the RT p66 gene regulated by the lac operon/trc promoter was obtained from Dr. W. Summers (Yale University) (2). A variety of specific amino acid substitutions were introduced into the wild-type RT gene by site-directed mutagenesis. RT clones were subcloned into the pKK233-2 bacterial expression vector. Clones provided included wild-type, Val106Ala, Tyr181Cys, Tyr188Cys, Tyr188Leu, Gly190Ala and Pro236Leu. Others were made in-house by site-directed mutagenesis of the pKK233-2 RT clones including Lys103Asn, Lys103Asn/Tyr181Cys, Lys103Asn/Leu100Ile, Lys103Asn/Pro225His, and Lys103Asn/Val108Ile.
(§4) Purification of recombinant reverse transcriptase was performed using a combination of methods previously described (3). A single colony from a fresh plate of transformed JM109 cells was used to initiate growth of a pre-culture grown o/n at 37° C. Two liters of growth medium were inoculated with this pre-culture. At OD600˜1.5 (5-6 h at 37° C.), RT gene expression was induced with IPTG (1 mM final), and the fermentation was continued for a few more hours at 37° C. After centrifugation, supernatants were discarded while cell pellets were pooled and stored at −80° C. until purification. Cells were thawed at 4° C. overnight and suspended in lysis buffer (MES 50 mM pH 6, EDTA 1 mM, 10% v/v glyerol, 0.02% w/v OBG, 0.02% w/v sodium azide). Lysozyme was added and the mixture was incubated on ice for 40 minutes. After homogenization using a bounce in presence of lysozyme and sonication, the cells were centrifuged for 30 minutes. Supernatant (S1) was saved and stored at 4° C. The centrifuged pellet was resuspended in extraction buffer (MES 50 mM pH 6, KPO4 50 mM pH 6, KCl 100 mM, 10% v/v glycerol, 0.02% w/v OBG, 0.02% w/v sodium axide) and stirred for 30 minutes at 4° C. This second mixture was centrifuged again and the supernatant (S2) was saved. The above procedure was repeated 2 more times saving supernatants S3 and S4 and one last extraction was performed overnight (S5). Polymin P (0.005% final) was added to the combined supernatants to remove nucleic acids. This solution was stirred for 75 minutes at 4° C. and centrifuged for 1 h. The supernatant (SS1) was precipitated on ice with 20% w/v ammonium sulfate and stirred for 1 h at 4° C. The mixture was then centrifuged and the resulting supernatant (SS2) was precipitated with additional 40% w/v ammonium sulfate (60% total), stirred for 1 h and centrifuged again. The final pellet (P1) was stored overnight at 4° C. before undergoing purification the following day. All steps of the purification were performed at 4° C. unless otherwise stated.
(§5) Pellet (P1) was resuspended into MES 50 mM pH 6, KPO4 10 mM pH 6, KCl 100 mM, 10% v/v glycerol, 0.02% w/v OBG, 0.02% w/v sodium azide. The suspension was dialysis against the same buffer overnight using 12-14 kD MWCO dialysis tubing. […]

[4] = test system: HIV coding for mutant reverse transcriptase K103N/V108I; experiment: ELISA (p24) assay of HIV replication in C8166 cell culture, K103N/V108I virus; type: cell-based, HIV-1; settings: Human immunodeficiency virus 1, C8166, 72 h, read-out: EC50 K103N/V108I
Procedure: as §1

[5] = test system: HIV coding for wild-type reverse transcriptase (WT RT); experiment: ELISA (p24) assay of HIV replication in C8166 cell culture, wild-type RT virus; type: cell-based, HIV-1; settings: Human immunodeficiency virus 1, C8166, 72 h, read-out: EC50 WT RT
Summary of the method: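 C8166 T cells infected at MOI 0.001 with wild-type or mutant RT HIV, then grown 3 days with serial compound dilutions in RPMI 1640 + 10% FBS. Extracellular p24 in supernatant pooled from eight replica wells measured by ELISA; % inhibition calculated from p24 levels.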

HIV-1 RT G190A = biological target: T3, HIV-1 RT G190A (Human immunodeficiency virus type 1 group M subtype B, UniProt P03366, G789A); experiment: Reverse transcriptase (RT) assay, G190A mutant; type: biochemical
T3 construct: an HIV RT clone pKRT2 containing only the RT p66 gene regulated by the lac operon/trc promoter; made in house; host or cells: E. coli JM109, vector pKK233-2
From the text: as §2, §3, §4, §5

HIV-1 RT P23L = biological target: T4, HIV-1 RT P23L (Human immunodeficiency virus type 1 group M subtype B, UniProt P03366, P835L); experiment: Reverse transcriptase (RT) assay, P23L mutant; type: biochemical
T4 construct: an HIV RT clone pKRT2 containing only the RT p66 gene regulated by the lac operon/trc promoter; made in house; host or cells: E. coli JM109, vector pKK233-2
From the text: as §2, §3
Purification of recombinant reverse transcriptase was performed using a combination of methods previously described (3). A single colony from a fresh plate of transformed JM109 cells was used to initiate growth of a pre-culture grown o/n at 37° C. Two liters of growth medium were inoculated with this pre-culture. At OD600˜1.5 (5-6 h at 37° C.), RT gene expression was induced with IPTG (1 mM final), and the fermentation was continued for a few more hours at 37° C. After centrifugation, supernatants were discarded while cell pellets were pooled and stored at −80° C. until purification. Cells were thawed at 4° C. overnight and suspended in lysis buffer (MES 50 mM pH 6, EDTA 1 mM, 10% v/v glyerol, 0.02% w/v OBG, 0.02% w/v sodium azide). Lysozyme was added and the mixture was incubated on ice for 40 minutes. After homogenization using a bounce in presence of lysozyme and sonication, the cells were centrifuged for 30 minutes. Supernatant (S1) was saved and stored at 4° C. […]

| SMILES | EC50 [1] [nM] | EC50 [2] [nM] | EC50 [3] [nM] | IC50 (HIV-1 RT Y188L) [nM] | IC50 (HIV-1 RT Y188C) [nM] | EC50 [4] [nM] | EC50 [5] [nM] | IC50 (HIV-1 RT G190A) [nM] | IC50 (HIV-1 RT P23L) [nM] |
| --- | --- | --- | --- | --- | --- | --- | --- | --- | --- |
| CCN1c2ncc(CCOc3cc[n+]([O-])c4ccccc34)cc2C(=O)N(C)c2cccnc21 [compound 21, 5,11-Dihydro-11-ethyl-5-methyl-8-{2-{(1-oxido-4-quinolinyl)oxy}ethyl}-6H-dipyrido[3,2-b:2′,3′-e][1,4]diazepin-6-one] | 3.5 | 2.9 | 4.8 | 1360 | 9.9 | 5 | 0.53 | 26 | 129 |
| CCN1c2ncc(CCOc3cc[n+]([O-])c4ccccc34)cc2C(=O)N(C)c2ccc(Cl)nc21 [compound 17, 2-Chloro-5,11-dihydro-11-ethyl-5-methyl-8-{2-{(1-oxido-4-quinolinyl)oxy}-ethyl}-6H-dipyrido[3,2-b:2′,3′-e][1,4]diazepin-6-one] | 1.5 | 1.2 | 2.8 | 198 | 8.1 | 2.7 | 0.34 | 25 | 60 |
| CCN1c2ncc(CCOc3cc[n+]([O-])c4ccccc34)cc2C(=O)N(C)c2ccc(F)nc21 [compound 11, 5,11-Dihydro-11-ethyl-2-fluoro-5-methyl-8-{2-{(1-oxido-4-quinolinyl)oxy}-ethyl}-6H-dipyrido[3,2-b:2′,3′-e][1,4]diazepin-6-one] | 2 | 2 | 4.1 | 661 | 6.6 | 3.9 | 0.34 | 19 | 56 |
